Test results from patent publication US20220185793A1, “COMPOUNDS FOR THE TREATMENT OF ONCOVIRUS INDUCED CANCER AND METHODS OF USE THEREOF” (Cellestia Biotech AG, priority 2019, published 2022).

Assays:
[1] = system: EBNA2; assay: EBV target gene downregulation (qPCR) in LCL070903 cells: EBNA2; type: cell-based; settings: Homo sapiens, mRNA by qPCR, Table 6
Description: (§1) One million human EBV positive lymphoma cell lines HG3 and LCL070903 (Rosén et al., 2012) were cultured in RPMI1640 media supplemented with 10% FCS. For RNA expression analysis cells were treated with compounds at 10 μM concentration and for proliferation assay cells were treated at a concentration range of 0.01-100 μM. Following treatment cells were harvested and washed with 1× PBS. Total RNA was extracted as described below.
(§2) Total RNA was extracted from cells using TRIzol® extraction kit (Invitrogen). Briefly, 1×10^6 cells were washed with ice-cold 1× PBS and lysed in 1 ml of TRIzol® solution for 5 minutes at room temperature to dissociate nucleoprotein complexes. Lysed cells were then treated with 200 μl of chloroform and shaked vigorously for 15-30 seconds and incubated at room temperature for 2-3 minutes. The samples were centrifuged at 14000 rpm using Eppendorf table top centrifuge for 10 minutes at 4° C. Following centrifugation, upper aqueous phase was transferred to new eppendorf tubes. To precipitate total RNA 500 μl of […] was added to the separated aqueous phase and incubated at room temperature for 10 minutes. A RNA pellet was obtained by centrifuging the samples at 4° C. for 10 minutes. RNA pellet obtained was washed with 1 ml ice cold 75% ethanol and spun down at 14000 rpm at 4° C. RNA pellet was dried off of excess of ethanol and resuspended in 40 IA DPEC water.
(§3) Total RNA extracted from the cell was used to synthesize cDNA by reverse transcription reaction. Reverse transcription was performed according to one of the two following protocols.
(§4) In first protocol, SuperScript™ RT (Invitrogen) was used for reverse transcription reaction. RNA concentration was measured using NanoDrop®ND-1000 spectrophotometer (Witec AG) and 500 ng of total RNA was mixed with a 10 mM mix of dNTPs and 100 ng of random primers. The reaction mix was incubated at 65° C. for 5 minutes and quickly incubated on ice for 1 minute. Following incubation on ice, 5× first strand buffer and 0.1M DTT were added and mix was incubated for 2 minutes at 25° C. To start the reverse transcription reaction, 200U of SuperScrip™ II RT was added to the reaction mix and incubated at 42° C. for 50 minutes. The reaction was stopped by incubating the reaction mix at 75° C. for 15 minutes.
(§5) In second protocol, reverse transcription was performed using PrimeScript RT Master Mix (Takara). RNA concentration was measured using NanoDrop®ND-1000 spectrophotometer (Witec AG) and 1 μg of total RNA was mixed with 4 μL 5X PrimeScript RT Master Mix in a total reaction volume of 20 μL. The reaction mix was incubated at 37° C. for 15 minutes followed by heat inactivation at 85° C. for 5 seconds.
(§6) QRT-PCR was carried out using 7900 HT Fast Real-Time PCR system (Applied Biosystems) or QuantStudio 3 system (ThermoFisher). Briefly, 12.5 ng of template cDNA was used with a primer concentration of 0.5 μM each and lx SYBR Green dye in a final volume of 10 μL in a 96 well or 384 well plate format.
(§7) Upon infection of human cells, EBV is known to induce cancerous transformation of cells via upregulation of host as well as viral genes (e.g LMP1, EBNA2, BATF1, BMI1 and CD21). To determine the ability of compounds to downregulate EBV driven gene expression, HG-3 and LCL070903 cells were treated with selected compounds and percentage inhibition of EBV target genes was determined by quantitative PCR. As shown in Table 5 and Table 6, compounds down regulate EBV target genes such as BMI1 in HG-3 and LCL070903 cells, respectively (FIGS. 3 and 4).

[2] = system: BMI1 (EBV target gene); assay: EBV target gene downregulation (qPCR) in HG-3 cells: BMI1; type: cell-based, human; settings: 48 hours; for potency in downregulating EBV pathway (BMI1) compared with 6-(4-tert-butylphenoxy)pyridin-3-amine (in words): 10 μM, qRT-PCR, FIG. 4; for inhibition at 10 µM: Homo sapiens, mRNA by qPCR, Table 5
Description: EBV positive human B HG-3 cells were treated with 10 μM of the mentioned compounds for 48 hours. Following treatment, total RNA was extracted and mRNA expression analysed by qRT-PCR.
as §1, §2, §3, §4, §5, §6, §7

[3] = system: BMI1 (EBV target gene); assay: EBV target gene downregulation (qPCR) in LCL070903 cells: BMI1; type: cell-based, human; settings: 48 hours; for potency in downregulating EBV pathway (BMI1) compared with 6-(4-tert-butylphenoxy)pyridin-3-amine (in words): 10 μM, qRT-PCR, FIG. 3; for inhibition at 10 µM: Homo sapiens, mRNA by qPCR, Table 6
Description: EBV positive human B LCL070903 cells were treated with 10 μM of the mentioned compounds for 48 hours. Following treatment, total RNA was extracted and mRNA expression analysed by qRT-PCR.
as §1, §2, §3, §4, §5, §6, §7

[4] = system: EBV positive human B HG-3 cells; assay: PrestoBlue proliferation assay in HG-3 cells; type: cell-based; settings: 72 hours; for anti-proliferative effect on HG-3 cells (in words): PrestoBlue, FIG. 2 and Table 4; for IC50: Homo sapiens, concentration range 0.03-100 μM, PrestoBlue assay, read-out: Anti-proliferative IC50 values (μM) in HG-3 cells
Description: (§8) One million human EBV positive lymphoma cell lines HG3 and LCL070903 (Rosén et al., 2012) were cultured in RPMI1640 media supplemented with 10% FCS. […] Following treatment cells were harvested and washed with 1× PBS. Total RNA was extracted as described below.
(§9) Alamarblue® and PrestoBlue proliferation assays were performed to determine the growth kinetics of EBV inhibitor treated cells. Alamar blue® and PrestoBlue consists of a cell permeable substrate resazurin. In metabolically active and proliferating cells, resazurin is converted to resorufin due to an intrinsic reducing power of live cells and produces a red fluorescence. Therefore production of resorufin serves as an indicator of the viability of the cell population.
(§10) Proliferation assays were performed by seeding 5000 cells/well in a 96 well plate. […] Each concentration was tested in 4 replicates. To determine the growth kinetics, 10 μl of Alamar blue® or PrestoBlue (Invitrogen) was added to each well and incubated for 4 hours. Readout was taken using Tecan F500 (Tecan) multiplate reader or Varioskan LUX (ThermoFisher) multiplate reader.
In brief, HG-3 cells were plated in a 96 well plate and treated with an increasing concentration of compounds.

[5] = system: EBNA2; assay: EBV target gene downregulation (qPCR) in HG-3 cells: EBNA2; type: cell-based; settings: Homo sapiens, mRNA by qPCR
Description: as §1, §2, §3, §4, §5, §6
(§11) To determine the ability of compounds to downregulate EBV driven gene expression, HG-3 cells were treated with selected compounds and percentage inhibition of EBV target genes was determined by quantitative PCR. […] To further determine the anti-oncoviral specificity of compounds, these compounds were tested for their ability to downregulate a NOTCH target gene HES1 in a NOTCH1 positive (EBV negative) human leukemic cell line RPMI8402.
as §7

[6] = system: NOTCH target gene HES1; assay: NOTCH target gene HES1 downregulation in RPMI 8402 cells; type: cell-based, human; design: Percentage inhibition of NOTCH target gene HES1: concentration or dose not given beside the values; settings: RPMI 8402 cells (NOTCH1 positive, EBV negative)
Description: as §2, §3, §6, §11

[7] = system: LMP1; assay: EBV target gene downregulation (qPCR) in HG-3 cells: LMP1; type: cell-based; settings: Homo sapiens, mRNA by qPCR, Table 2
Description: as §1, §2, §3, §4
(§12) In second protocol, reverse transcription was performed using PrimeScript RT Master Mix (Takara). RNA concentration was measured using NanoDrop®ND-1000 spectrophotometer (Witec AG) and 1 μg of total RNA was mixed with 4 μL 5X PrimeScript RT Master Mix in a total reaction volume of 20 μL. […]
(§13) To determine the ability of compounds to downregulate EBV driven gene expression, HG-3 cells were treated with selected compounds and percentage inhibition of EBV target genes was determined by quantitative PCR. […]

[8] = system: EBV positive human lymphoma HG-3 cells; assay: Alamar blue proliferation assay in HG-3 cells; type: cell-based; settings: 72 hours; for anti-proliferative effect on HG-3 cells (in words): Alamar blue, FIG. 1 and Table 1; for IC50: Homo sapiens, concentration range 0.01-10 μM, Alamar blue assay, read-out: Anti-proliferative IC50 values
Description: as §8, §9, §10
In order to determine anti-cancer activity of compounds in oncoviral driven cells, an EBV infected human Chronic Lymphocytic Leukemia cell line HG-3 was used (Rosen et al., 2012). In brief, HG-3 cells were plated in a 96 well plate and treated with an increasing concentration of compounds.

[9] = system: RUNX3; assay: EBV target gene downregulation (qPCR) in HG-3 cells: RUNX3; type: cell-based; settings: Homo sapiens, mRNA by qPCR, Table 2
Description: as §1, §2, §3, §4, §12, §13

[10] = system: CD21; assay: EBV target gene downregulation (qPCR) in LCL070903 cells: CD21; type: cell-based; settings: Homo sapiens, mRNA by qPCR, Table 6
Description: as §1
as §2, with “A RNA pellet was obtained by centrifuging the samples at 4° C. for 10 minutes. RNA pellet obtained was washed with 1 ml ice cold 75% ethanol and spun down at 14000 rpm at 4° C. RNA pellet was dried off of excess of ethanol and resuspended in 40 IA DPEC water.” left out
(§14) In first protocol, SuperScript™ RT (Invitrogen) was used for reverse transcription reaction. RNA concentration was measured using NanoDrop®ND-1000 spectrophotometer (Witec AG) and 500 ng of total RNA was mixed with a 10 mM mix of dNTPs and 100 ng of random primers. […]
as §12
as §7, with “As shown in Table 5 and Table 6, compounds down regulate EBV target genes such as BMI1 in HG-3 and LCL070903 cells, respectively (FIGS. 3 and 4).” left out

[11] = system: CD21; assay: EBV target gene downregulation (qPCR) in HG-3 cells: CD21; type: cell-based; settings: Homo sapiens, mRNA by qPCR, Table 5
Description: as §1
Total RNA was extracted from cells using TRIzol® extraction kit (Invitrogen). Briefly, 1×10^6 cells were washed with ice-cold 1× PBS and lysed in 1 ml of TRIzol® solution for 5 minutes at room temperature to dissociate nucleoprotein complexes. Lysed cells were then treated with 200 μl of chloroform and shaked vigorously for 15-30 seconds and incubated at room temperature for 2-3 minutes. […]
as §14, §12

| SMILES | inhibition at 10 µM [1] [%] | potency in downregulating EBV pathway (BMI1) compared with 6-(4-tert-butylphenoxy)pyridin-3-amine (in words) [2] | inhibition at 10 µM [2] [%] | potency in downregulating EBV pathway (BMI1) compared with 6-(4-tert-butylphenoxy)pyridin-3-amine (in words) [3] | inhibition at 10 µM [3] [%] | anti-proliferative effect on HG-3 cells (in words) [4] | IC50 [4] [µM] | inhibition at 10 µM ([5]; Table 5) [%] | Percentage inhibition of NOTCH target gene HES1 [6] [%] | downregulation of NOTCH target gene HES1 (in words) [6] | inhibition at 10 µM [7] [%] | anti-proliferative effect on HG-3 cells (in words) [8] | IC50 [8] [µM] | inhibition at 10 µM [9] [%] | inhibition at 10 µM [10] [%] | inhibition at 10 µM ([5]; Table 2) [%] | inhibition at 10 µM [11] [%] |
| --- | --- | --- | --- | --- | --- | --- | --- | --- | --- | --- | --- | --- | --- | --- | --- | --- | --- |
| Cc1nc(Oc2ccc(-c3ccccc3)cc2)ccc1NCc1cccnc1 [Example 23, 6-([1,1′-Biphenyl]-4-yloxy)-2-methyl-N-(pyridin-3-ylmethyl)pyridin-3-amine] | 1 | enhanced potency | 35 | enhanced potency | 39 | demonstrate anti-proliferative effect | 1.9 | 1 | – | – | – | – | – | – | – | – | – |
| Fc1cc(NCc2cccnc2)ccc1Oc1ccc(C2CCCCC2)cc1 [Example 19, 4-(4-Cyclohexylphenoxy)-3-fluoro-N-(pyridin-3-ylmethyl)aniline] | 19 | enhanced potency | 19 | enhanced potency | 56 | demonstrate anti-proliferative effect | 3.5 | 36 | – | – | – | – | – | – | – | – | – |
| CC(C)(C)c1ccc(Oc2ccc(NCc3ccncc3)cn2)cc1 [Example 1, 6-(4-(tert-Butyl)phenoxy)-N-(pyridin-4-ylmethyl)pyridin-3-amine] | – | – | – | – | – | – | – | – | 0 | do not modulate expression of this gene | 30 | demonstrate anti-proliferative effect | 4 | 27 | – | – | – |
| CC(C)(C)c1ccc(Oc2ccc(NCc3c[nH]cn3)cn2)cc1 [Example 10, N-((1H-Imidazol-4-yl)methyl)-6-(4-(tert-butyl)phenoxy)pyridin-3-amine] | – | – | – | – | – | – | – | – | 0 | do not modulate expression of this gene | 15 | demonstrate anti-proliferative effect | 6.6 | 37 | – | – | – |
| c1cncc(CNc2ccc(Oc3ccc(-c4cncs4)cc3)nc2)c1 [Example 27, N-(pyridin-3-ylmethyl)-6-(4-(thiazol-5-yl)phenoxy)pyridin-3-amine] | – | enhanced potency | – | enhanced potency | 66 | demonstrate anti-proliferative effect | 1.9 | – | – | – | – | – | – | – | 22 | – | – |
| CC(C)(C)c1ccc(Oc2ccc(NCc3ccccn3)cn2)cc1 [Example 3, 6-(4-(tert-Butyl)phenoxy)-N-(pyridin-2-ylmethyl)pyridin-3-amine] | – | – | – | – | – | – | – | – | 0 | do not modulate expression of this gene | 37 | demonstrate anti-proliferative effect | 5.4 | 55 | – | 16 | – |
| CC(C)(C)c1ccc(Oc2ccc(NCc3cnc(N)nc3)cn2)cc1 [Example 5, 5-(((6-(4-(tert-Butyl)phenoxy)pyridin-3-yl)amino)methyl)pyrimidin-2-amine] | – | – | – | – | – | – | – | – | 0 | do not modulate expression of this gene | 22 | demonstrate anti-proliferative effect | 4.8 | 57 | – | 46 | – |
| Cc1ccccc1-c1ccc(Oc2ccc(NCc3cccnc3)cn2)cc1C [Example 29, 6-((2,2′-dimethyl-[1,1′-biphenyl]-4-yl)oxy)-N-(pyridin-3-ylmethyl)pyridin-3-amine] | 30 | enhanced potency | 28 | enhanced potency | 72 | demonstrate anti-proliferative effect | 2 | 6 | – | – | – | – | – | – | – | – | – |
| OC(c1ccc(NCc2cccnc2)cc1)c1ccc(-c2ccc(F)cc2)cc1 (stereo not shown) [Example 30, (4′-Fluoro-[1,1′-biphenyl]-4-yl)(4-((pyridin-3-ylmethyl)amino)phenyl)methanol] | – | enhanced potency | 31 | enhanced potency | 54 | – | – | – | – | – | – | – | – | – | – | – | 10 |
